Measured values published in US7612211B2, “Benzimidazole TRPV1 inhibitors” (Janssen Pharmaceutica N.V., priority 2006, dated 2009).

Biological target: T1, hTRPV1 (Homo sapiens, UniProt Q8NER1)
T1 construct: expressed in transfected cells; host or cells: HEK293
Assay: Human TRPV1 (hTRPV1) functional assay, FLIPR intracellular Ca2+, capsaicin challenge
Format: cell-based
Settings: HEK293 cells expressing hTRPV1, capsaicin 0.030 μM challenge; for IC50: derived from a variety of test concentrations, read-out: IC50 value (symbol c); for inhibition at 0.5 µM: test concentration of 0.5 μm, read-out: percent inhibition (symbol a); for inhibition at 0.2 µM: test concentration of 0.2 μm, read-out: percent inhibition (symbol b)
Description: The functional activity of the test compounds was determined by measuring changes in intracellular calcium concentration using a Ca^++-sensitive fluorescent dye and FLIPR™ technology. Increases in Ca^++ concentration were readily detected upon challenge with capsaicin.
HEK293 cells expressing hTRPV1 were grown on poly-D-lysine coated 384 well black-walled plates (BD 354663) and 1 day later loaded with Calcium 3 Dye for 35 min at 37° C., 5% CO2 and then for 25 min at room temperature, and subsequently tested for agonist-induced increases in intracellular Ca^2+ levels using FLIPR™ technology. Cells were challenged with test compounds (at varying concentrations) and intracellular Ca^2+ was measured for 5 min prior to the addition of capsaicin to all wells to achieve a final concentration of 0.030 μM eliciting ˜80% maximal response.
EC50 or IC50 values were determined from concentration-response studies, which were generated using the average of quadruplicate wells for each data point. The symbol “a” represents percent inhibition obtained at a test concentration of 0.5 μm; the symbol “b” represents percent inhibition obtained at a test concentration of 0.2 μm; the symbol “c” represents an IC50 value (nM) derived from a variety of test concentrations. The term “NA” means that the result is not applicable for a particular compound.

T1 sequence (Q8NER1 whole entry): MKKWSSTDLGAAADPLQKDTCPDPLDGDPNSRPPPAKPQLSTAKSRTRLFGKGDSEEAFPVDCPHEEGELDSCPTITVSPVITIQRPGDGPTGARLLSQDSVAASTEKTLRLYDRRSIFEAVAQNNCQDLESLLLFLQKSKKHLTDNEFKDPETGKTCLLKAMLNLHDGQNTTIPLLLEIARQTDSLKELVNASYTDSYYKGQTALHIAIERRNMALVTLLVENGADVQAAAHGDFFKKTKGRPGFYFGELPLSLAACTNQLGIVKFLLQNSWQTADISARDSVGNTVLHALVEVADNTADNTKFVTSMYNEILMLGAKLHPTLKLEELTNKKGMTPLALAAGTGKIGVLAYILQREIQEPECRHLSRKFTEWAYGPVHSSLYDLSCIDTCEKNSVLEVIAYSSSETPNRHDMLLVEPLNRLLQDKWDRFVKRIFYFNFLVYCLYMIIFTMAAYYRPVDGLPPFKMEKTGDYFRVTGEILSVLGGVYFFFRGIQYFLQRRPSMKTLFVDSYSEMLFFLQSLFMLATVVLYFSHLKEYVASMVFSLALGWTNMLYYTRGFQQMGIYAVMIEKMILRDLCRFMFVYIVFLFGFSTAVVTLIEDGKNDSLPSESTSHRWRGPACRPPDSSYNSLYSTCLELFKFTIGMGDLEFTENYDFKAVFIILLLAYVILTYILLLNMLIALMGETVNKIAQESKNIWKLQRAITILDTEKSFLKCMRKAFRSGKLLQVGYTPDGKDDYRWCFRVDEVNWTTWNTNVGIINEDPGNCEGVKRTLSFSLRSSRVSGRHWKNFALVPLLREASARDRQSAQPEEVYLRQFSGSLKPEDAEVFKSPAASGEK

NS(=O)(=O)c1ccccc1-c1ccc2[nH]c(COc3ccc(SC(F)(F)F)cc3)nc2c1 [Cpd 34, 2-[2-(4-trifluoromethylsulfanyl-phenoxymethyl)-1H-benzoimidazol-5-yl]-benzenesulfonamide]
IC50: 0.013 µM | inhibition at 0.5 µM: 100%

CC(=O)c1ccc(OCc2nc3cc(-c4ccccc4S(N)(=O)=O)ccc3[nH]2)cc1 [Cpd 35, 2-[2-(4-acetyl-phenoxymethyl)-1H-benzoimidazol-5-yl]-benzenesulfonamide]
IC50: 0.016 µM | inhibition at 0.5 µM: 97%

NS(=O)(=O)c1ccccc1-c1ccc2[nH]c(COc3ccc4ccccc4c3)nc2c1 [Cpd 36, 2-[2-(naphthalen-2-yloxymethyl)-1H-benzoimidazol-5-yl]-benzenesulfonamide]
IC50: 0.032 µM | inhibition at 0.5 µM: 98%

NS(=O)(=O)c1ccccc1-c1ccc2[nH]c(COc3ccc4ncccc4c3)nc2c1 [Cpd 37, 2-[2-(quinolin-6-yloxymethyl)-1H-benzoimidazol-5-yl]-benzenesulfonamide]
inhibition at 0.5 µM: 50%

NS(=O)(=O)c1ccccc1-c1ccc2[nH]c(COc3ccncc3)nc2c1 [Cpd 38, 2-[2-(pyridin-4-yloxymethyl)-1H-benzoimidazol-5-yl]-benzenesulfonamide]
inhibition at 0.5 µM: 13%

NS(=O)(=O)c1ccccc1-c1ccc2[nH]c(COc3ccc(C(F)(F)F)cn3)nc2c1 [Cpd 39, 2-[2-(5-trifluoromethyl-pyridin-2-yloxymethyl)-1H-benzoimidazol-5-yl]-benzenesulfonamide]
inhibition at 0.5 µM: 5%

Cn1c(COc2ccc(C(F)(F)F)cc2)nc2cc(-c3ccccc3S(N)(=O)=O)ccc21 [Cpd 40, 2-[1-methyl-2-(4-trifluoromethyl-phenoxymethyl)-1H-benzoimidazol-5-yl]-benzenesulfonamide]
IC50: 0.0086 µM | inhibition at 0.5 µM: 100%

NS(=O)(=O)c1ccccc1-c1ccc2[nH]c(CSc3ccc(C(F)(F)F)cc3)nc2c1 [Cpd 41, 2-[2-(4-trifluoromethyl-phenylsulfanylmethyl)-1H-benzoimidazol-5-yl]-benzenesulfonamide]
IC50: 0.0049 µM | inhibition at 0.2 µM: 98%

NS(=O)(=O)c1ccccc1-c1ccc2[nH]c(CSc3ccc(Cl)cc3)nc2c1 [Cpd 42, 2-[2-(4-chloro-phenylsulfanylmethyl)-1H-benzoimidazol-5-yl]-benzenesulfonamide]
IC50: 0.075 µM | inhibition at 0.2 µM: 93%

NS(=O)(=O)c1ccccc1-c1ccc2[nH]c(CSc3ccc(OC(F)(F)F)cc3)nc2c1 [Cpd 43, 2-[2-(4-trifluoromethoxy-phenylsulfanylmethyl)-1H-benzoimidazol-5-yl]-benzenesulfonamide]
IC50: 0.123 µM | inhibition at 0.2 µM: 87%

NS(=O)(=O)c1ccccc1-c1ccc2[nH]c(CS(=O)(=O)c3ccc(C(F)(F)F)cc3)nc2c1 [Cpd 44, 2-[2-(4-trifluoromethyl-benzenesulfonylmethyl)-1H-benzoimidazol-5-yl]-benzenesulfonamide]
inhibition at 0.2 µM: 12%

NS(=O)(=O)c1ccccc1-c1ccc2[nH]c(CS(=O)(=O)c3ccc(Cl)cc3)nc2c1 [Cpd 45, 2-[2-(4-chloro-benzenesulfonylmethyl)-1H-benzoimidazol-5-yl]-benzenesulfonamide]
inhibition at 0.2 µM: 2%

NS(=O)(=O)c1ccccc1-c1ccc2[nH]c(CS(=O)(=O)c3ccc(OC(F)(F)F)cc3)nc2c1 [Cpd 46, 2-[2-(4-trifluoromethoxy-benzenesulfonylmethyl)-1H-benzoimidazol-5-yl]-benzenesulfonamide]
inhibition at 0.2 µM: 5%

NS(=O)(=O)c1ccccc1-c1ccc2[nH]c(CNc3ccc(C(F)(F)F)cc3)nc2c1 [Cpd 47, 2-{2-[(4-trifluoromethyl-phenylamino)-methyl]-1H-benzoimidazol-5-yl}-benzenesulfonamide]
inhibition at 0.2 µM: 46%

NS(=O)(=O)c1ccccc1-c1ccc2[nH]c(CNc3ccc(OC(F)(F)F)cc3)nc2c1 [Cpd 48, 2-{2-[(4-trifluoromethoxy-phenylamino)-methyl]-1H-benzoimidazol-5-yl}-benzenesulfonamide]
inhibition at 0.2 µM: 41%

CC(=O)c1ccccc1-c1ccc2[nH]c(COc3ccc(C(F)(F)F)cc3)nc2c1 [Cpd 49, 1-{2-[2-(4-trifluoromethyl-phenoxymethyl)-1H-benzoimidazol-5-yl]-phenyl}-ethanone]
IC50: 0.106 µM | inhibition at 0.2 µM: 89%

CC(C)(O)c1ccccc1-c1ccc2[nH]c(COc3ccccc3)nc2c1 [Cpd 50, 2-[2-(2-phenoxymethyl-1H-benzoimidazol-5-yl)-phenyl]-propan-2-ol]
IC50: 0.091 µM | inhibition at 0.2 µM: 81%

CNS(=O)(=O)c1ccccc1-c1ccc2[nH]c(COc3ccc(C(C)C)cc3)nc2c1 [Cpd 51, 2-[2-(4-isopropyl-phenoxymethyl)-1H-benzoimidazol-5-yl]-N-methyl-benzenesulfonamide]
IC50: 0.0078 µM | inhibition at 0.2 µM: 100%

CNS(=O)(=O)c1ccccc1-c1ccc2[nH]c(COc3cccc(C(F)(F)F)c3)nc2c1 [Cpd 52, N-methyl-2-[2-(3-trifluoromethyl-phenoxymethyl)-1H-benzoimidazol-5-yl]-benzenesulfonamide]
IC50: 0.035 µM | inhibition at 0.2 µM: 99%

CS(=O)(=O)c1ccccc1-c1ccc2[nH]c(COc3ccccc3)nc2c1 [Cpd 53, 5-(2-methanesulfonyl-phenyl)-2-phenoxymethyl-1H-benzoimidazole]
inhibition at 0.2 µM: 17%

CS(=O)(=O)c1ccccc1-c1ccc2[nH]c(COc3ccccc3F)nc2c1 [Cpd 54, 2-(2-fluoro-phenoxymethyl)-5-(2-methanesulfonyl-phenyl)-1H-benzoimidazole]
inhibition at 0.2 µM: 4%

CS(=O)(=O)c1ccccc1-c1ccc2[nH]c(COc3cccc(F)c3)nc2c1 [Cpd 55, 2-(3-fluoro-phenoxymethyl)-5-(2-methanesulfonyl-phenyl)-1H-benzoimidazole]
inhibition at 0.2 µM: 20%

CS(=O)(=O)c1ccccc1-c1ccc2[nH]c(COc3ccc(F)cc3)nc2c1 [Cpd 56, 2-(4-fluoro-phenoxymethyl)-5-(2-methanesulfonyl-phenyl)-1H-benzoimidazole]
inhibition at 0.2 µM: 31%

CS(=O)(=O)c1ccccc1-c1ccc2[nH]c(COc3ccccc3Cl)nc2c1 [Cpd 57, 2-(2-chloro-phenoxymethyl)-5-(2-methanesulfonyl-phenyl)-1H-benzoimidazole]
inhibition at 0.2 µM: 14%

CS(=O)(=O)c1ccccc1-c1ccc2[nH]c(COc3cccc(Cl)c3)nc2c1 [Cpd 58, 2-(3-chloro-phenoxymethyl)-5-(2-methanesulfonyl-phenyl)-1H-benzoimidazole]
inhibition at 0.2 µM: 22%

CS(=O)(=O)c1ccccc1-c1ccc2[nH]c(COc3ccc(Cl)cc3)nc2c1 [Cpd 59, 2-(4-chloro-phenoxymethyl)-5-(2-methanesulfonyl-phenyl)-1H-benzoimidazole]
IC50: 0.018 µM | inhibition at 0.2 µM: 87%

CS(=O)(=O)c1ccccc1-c1ccc2[nH]c(COc3cccc(Br)c3)nc2c1 [Cpd 60, 2-(3-bromo-phenoxymethyl)-5-(2-methanesulfonyl-phenyl)-1H-benzoimidazole]
inhibition at 0.2 µM: 49%

CS(=O)(=O)c1ccccc1-c1ccc2[nH]c(COc3ccc(Br)cc3)nc2c1 [Cpd 61, 2-(4-bromo-phenoxymethyl)-5-(2-methanesulfonyl-phenyl)-1H-benzoimidazole]
IC50: 0.066 µM | inhibition at 0.2 µM: 77%

CS(=O)(=O)c1ccccc1-c1ccc2[nH]c(COc3ccc(F)cc3F)nc2c1 [Cpd 62, 2-(2,4-difluoro-phenoxymethyl)-5-(2-methanesulfonyl-phenyl)-1H-benzoimidazole]
inhibition at 0.2 µM: 24%

CS(=O)(=O)c1ccccc1-c1ccc2[nH]c(COc3ccc(F)c(F)c3)nc2c1 [Cpd 63, 2-(3,4-difluoro-phenoxymethyl)-5-(2-methanesulfonyl-phenyl)-1H-benzoimidazole]
inhibition at 0.2 µM: 37%

CS(=O)(=O)c1ccccc1-c1ccc2[nH]c(COc3ccc(Cl)cc3Cl)nc2c1 [Cpd 64, 2-(2,4-dichloro-phenoxymethyl)-5-(2-methanesulfonyl-phenyl)-1H-benzoimidazole]
inhibition at 0.2 µM: 58%

CS(=O)(=O)c1ccccc1-c1ccc2[nH]c(COc3ccc(Cl)c(Cl)c3)nc2c1 [Cpd 65, 2-(3,4-dichloro-phenoxymethyl)-5-(2-methanesulfonyl-phenyl)-1H-benzoimidazole]
IC50: 0.058 µM | inhibition at 0.2 µM: 91%

CS(=O)(=O)c1ccccc1-c1ccc2[nH]c(COc3ccc(Cl)cc3F)nc2c1 [Cpd 66, 2-(4-chloro-2-fluoro-phenoxymethyl)-5-(2-methanesulfonyl-phenyl)-1H-benzoimidazole]
IC50: 0.081 µM | inhibition at 0.2 µM: 85%

CS(=O)(=O)c1ccccc1-c1ccc2[nH]c(COc3ccc(F)c(Cl)c3)nc2c1 [Cpd 67, 2-(3-chloro-4-fluoro-phenoxymethyl)-5-(2-methanesulfonyl-phenyl)-1H-benzoimidazole]
inhibition at 0.2 µM: 70%

CS(=O)(=O)c1ccccc1-c1ccc2[nH]c(COc3cc(F)c(F)c(F)c3)nc2c1 [Cpd 68, 5-(2-methanesulfonyl-phenyl)-2-(3,4,5-trifluoro-phenoxymethyl)-1H-benzoimidazole]
inhibition at 0.2 µM: 59%
